Experimental data: patent publication US20240317727A1 (Duke University, priority 2018, published 2024)
pIC50: −log10 of the molar value. Each block holds one molecule with its values, some of them ahead of it.

Experiments:
[1] = test system: heat shock induced chaperone (Hsp25 and Hsp70) expression; assay: Heat shock induced chaperone expression in MEFs, immunoblotting; assay type: cell-based, mouse; settings: heat shock 42° C. 30 mins, 6-hour recovery, FIG. 3
Description: The MEFs were then subjected to heat shock stress at 42° C. for 30 mins to activate HSF1. After heat shock, the MEFs were incubated at 37° C. for a 6-hour recovery. The whole cell lysates were collected at the end of the experiment, and proteins of interest, including Hsp25, Hsp70, HSF1 and GAPDH (as loading control) were assessed by immunoblotting with the corresponding antibody.

[2] = target: T1, recombinant HSF1 DNA-binding domain (DBD) (Homo sapiens, UniProt Q00613); assay: Differential Scanning Fluorimetry (DSF), HSF1 DBD melting temperature; settings: for ΔTm at 25 µM: Table 1, 5 μM HSF1 DBD, 25PM Compound, positive = stabilizes, negative = destabilizes HSF1; for effect on melting temperature of HSF1: thermal denaturation profiling, FIG. 2
T1 sequence (Q00613 15-120): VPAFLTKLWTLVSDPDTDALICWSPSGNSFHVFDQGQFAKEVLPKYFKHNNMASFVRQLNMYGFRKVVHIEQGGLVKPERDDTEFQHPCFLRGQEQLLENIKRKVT

[3] = target: recombinant protein Hsc70 (Homo sapiens, UniProt P11142); assay: Thermal denaturation of Hsc70 (selectivity); settings: selectivity in binding, FIG. 2
[4] = test system: C4-2 malignant prostate cancer cells vs BPH-1 non-tumorigenic prostate cells; assay: AlamarBlue cell viability, C4-2 vs BPH-1; assay type: cell-based, human; settings: FIG. 6A; for viability of C4-2 compared to BPH-1: 96 hours, AlamarBlue assay; for potency compared to Compound 0017: inhibition of metastatic prostate cancer cell growth
Description: The cells were treated for 96 hours with the indicated concentrations of the compounds of the disclosure and cell viability was measured with the AlamarBlue assay. FIG. 6B illustrates the results of Compound 0017 used in a 7-week Maximal Tolerated Dose (MTD) study conducted in mice (3 mice identified as 118, 119 and 120). […] After sacrificing the mice on the last day of the administration, mouse liver and heart tissue was isolated, messenger RNA extracted and the transcript abundance of the HSF1 target gene, Hsp70, was evaluated by qRT-PCR relative to the internal RNA control, GAPDH. The results of the vehicle-treated versus Compound 0017-treated experiments were compared.
Based on the chemical structure of Compound 0017 and its activity, and of other HSF1-interacting chemicals identified in the screen, additional derivatives were designed, synthesized and evaluated for binding to HSF1 and preferential inhibition of metastatic prostate cancer cells (C4-2) versus benign prostate cells (BPH-1).

Hsp70 = assay: HSF1 target gene transcript expression qPCR in C4-2 cells, Hsp70; assay type: cell-based; settings: Homo sapiens, 2 hours then SNX-2112 (100 nM) 5 hr, vs GAPDH and DMSO
Description: (§1) Next, the change in heat shock protein gene expression in C4-2 prostate cancer cells was determined. C4-2 prostate cancer cells were grown in RMPI-1640 (no L-glutamine, Gibco 21870076) supplemented with 10% fetal bovine […] (non-heat-inactivated, Cytiva Hyclone SH30071.03). To quantitatively measure the inhibition of HSF1 activity in C4-2 prostate cancer cells, compounds or DMSO were added to triplicate C4-2 cell cultures for 2 hours. HSF1 activity was then stimulated with the Hsp90 inhibitor SNX-2112 (100 nM) for an additional 5 hr at 37° C. in the presence of HSF1 degrader compounds or DMSO. Total RNA was extracted, converted to cDNA and used in qPCR assays to quantify the change in HSF1 target gene transcript expression (HSPA4L equals Hsp70, HSPB1 equals Hsp27 and DNAJB1 equals Hsp40) as compared to GAPDH internal control gene, and then compared to DMSO negative control.

[5] = target: T2, purified recombinant human HSF1 (HSF1 DNA binding domain) (Homo sapiens, UniProt Q00613); assay: Melting temperature of HSF1 DBD with HSF1 degrader compounds (Sypro orange); settings: 12.5 micromolar compound, 5 micromolar HSF1 DBD, compared to DMSO; read-out: ΔTm (° C.)
T2 sequence (Q00613 15-120): T1 sequence (Q00613 15-120)
Summary of the method: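 HSF1 DNA-binding domain at 5 μM final with Sypro orange was heated 25–85° C in 0.5° C steps with 12.5 μM compound or DMSO, in triplicate. Melting curves were fitted to a Boltzmann equation, and ΔTm was taken as compound minus DMSO melting temperature.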

[6] = test system: C4-2 prostate cancer cells; assay: C4-2 cell proliferation, Cell Titre Glo; assay type: cell-based; settings: Homo sapiens, 48-hour period, 9-point dilution series, read-out: Cell Viability IC50
[7] = Rat liver microsome stability; assay type: in vitro ADME; settings: rat liver microsomes, 37° C., read-out: Microsome Stability T1/2
Description: Next, the microsome stability in rats was determined for select compounds from Table 5. Test compounds are incubated with rat liver microsomes supplemented with co-factors at 37° C. Typical conditions were a compound concentration of 1 μM and 5 sampling time-points (0, 5, 15, 30 and 45 minutes), in duplicate. At each time-point, the reactions were terminated by the addition of organic solvent. The samples were centrifuged and the parent compound concentration was evaluated by LC-MS/MS measurements. Control compounds were included with well-established stability when incubated with rat microsomes. Multiple time points were used to determine % parent compound remaining at each time point and to calculate the Tiu2 for each compound in rat liver microsomes. A higher T1/2 indicates increased compound stability in microsomes.

DNAJB1 equals Hsp40 = assay: HSF1 target gene transcript expression qPCR in C4-2 cells, Hsp40; assay type: cell-based; settings: Homo sapiens, 2 hours then SNX-2112 (100 nM) 5 hr, vs GAPDH and DMSO
Description: as §1

recombinant protein Hsc70, sequence (P11142 whole entry, species assumed): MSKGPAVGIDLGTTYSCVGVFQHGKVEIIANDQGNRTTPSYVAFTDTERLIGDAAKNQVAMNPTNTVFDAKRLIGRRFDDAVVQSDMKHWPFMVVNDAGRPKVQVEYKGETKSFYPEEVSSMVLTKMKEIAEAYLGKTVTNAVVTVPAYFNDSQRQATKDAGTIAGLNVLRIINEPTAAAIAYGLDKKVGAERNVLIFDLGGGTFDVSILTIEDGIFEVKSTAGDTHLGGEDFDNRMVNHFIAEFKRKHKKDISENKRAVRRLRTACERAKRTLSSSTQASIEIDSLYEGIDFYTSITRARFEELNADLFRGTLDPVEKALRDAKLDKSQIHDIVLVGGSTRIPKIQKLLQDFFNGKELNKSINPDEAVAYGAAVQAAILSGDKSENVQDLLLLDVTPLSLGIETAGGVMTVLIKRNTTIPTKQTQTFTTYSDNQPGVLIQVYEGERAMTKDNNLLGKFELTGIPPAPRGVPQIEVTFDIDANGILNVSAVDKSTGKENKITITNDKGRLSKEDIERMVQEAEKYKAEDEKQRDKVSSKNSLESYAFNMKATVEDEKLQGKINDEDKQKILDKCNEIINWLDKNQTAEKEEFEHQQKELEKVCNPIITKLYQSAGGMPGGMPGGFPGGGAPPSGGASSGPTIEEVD

Structure (SMILES): O=C(Nc1ccccc1)Nc1ccccc1 [1,3-diphenylurea, reference compound]
heat shock induced chaperone (Hsp25 and Hsp70) expression [1]: showed no impact on HSF1 activity
binding to HSF1 ([2]; thermal denaturation assay): fails to bind HSF1

Structure (SMILES): O=C(Nc1ccc(F)cc1)Nc1ccc(Br)c(C(F)(F)F)c1 [Compound 0005, 1-(4-bromo-3-(trifluoromethyl)phenyl)-3-(4-fluorophenyl)urea]
effect on melting of unrelated protein Hsc70 [3]: did not affect the melting
ΔTm at 25 µM [2]: 5.1 °C
effect on melting temperature of HSF1 [2]: stabilized the melting temperature of HSF1

Structure (SMILES): N#Cc1ccc(NC(=O)Nc2ccc(Cl)c(S(=O)(=O)C(F)(F)F)c2)cc1C(F)(F)F [Compound 257, 1-(4-chloro-3-((trifluoromethyl)sulfonyl)phenyl)-3-(4-cyano-3-(trifluoromethyl)phenyl)urea]
mrna remaining at 10 µM (Hsp70): 20%
ΔTm at 12.5 µM [5]: 1.62 °C
pIC50 [6]: 5.67
half-life at 1 μM [7]: 6.16 h
mrna remaining at 10 µM (DNAJB1 equals Hsp40): 7%

Structure (SMILES): N#Cc1ccc(NC(=O)Nc2ccc(Cl)c(C(F)(F)F)c2)cc1C(F)(F)F [Compound 258, 1-(4-chloro-3-(trifluoromethyl)phenyl)-3-(4-cyano-3-(trifluoromethyl)phenyl)urea]
mrna remaining at 10 µM (Hsp70): 60%
ΔTm at 12.5 µM [5]: 2.26 °C
pIC50 [6]: 5.78
half-life at 1 μM [7]: 10.6 h
mrna remaining at 10 µM (DNAJB1 equals Hsp40): 65%

More lines, main results first:

effect on melting of unrelated protein Hsc70 [3]: did not affect the melting
ΔTm at 25 µM [2]: 4.1 °C
Structure (SMILES): O=C(Nc1ccc(Cl)cc1)Nc1csc([N+](=O)[O-])c1 [Compound 0009]
effect on melting temperature of HSF1 [2]: stabilized the melting temperature of HSF1

effect on melting of unrelated protein Hsc70 [3]: did not affect the melting
ΔTm at 25 µM [2]: 2.93 °C
Structure (SMILES): COc1cccc(-c2cnc(Nc3ccc(F)cc3)s2)c1 [Compound 0050]
effect on melting temperature of HSF1 [2]: stabilized the melting temperature of HSF1

ΔTm at 25 µM [2]: 2.9 °C
Structure (SMILES): O=C(Nc1ccc(F)cc1)Nc1ccc(Cl)c(S(=O)(=O)C(F)(F)F)c1 [Compound 0054, 1-[4-chloro-3-(trifluoromethylsulfonyl)phenyl]-3-(4-fluorophenyl)urea]
viability of C4-2 compared to BPH-1 [4]: preferentially inhibit the viability
potency compared to Compound 0017 [4]: increased potency compared to Compound 0017

ΔTm at 25 µM [2]: 2.3 °C
Structure (SMILES): O=c1c(Nc2ccc(F)cc2)c(Nc2ccc(Cl)c(C(F)(F)F)c2)c1=O [Compound 0064, 3-[4-chloro-3-(trifluoromethyl)anilino]-4-(4-fluoroanilino)cyclobut-3-ene-1,2-dione]
viability of C4-2 compared to BPH-1 [4]: preferentially inhibit the viability
potency compared to Compound 0017 [4]: increased potency compared to Compound 0017
